# Laboratory results from patent US20240336568A1, “SELECTIVE PHD1 INHIBITOR COMPOUNDS, COMPOSITIONS, AND METHODS OF USE” (Akebia Therapeutics, Inc., priority 2021, published 2024).
# Tested on: full-length human prolyl-4-hydroxylase domain (PHD) enzymes, PHD1 and PHD2
# Test: TR-FRET assay, selectivity of compounds for PHD1 over PHD2 (ratio of Kis calculated from IC50s)
# Assay type: biochemical
# Conditions: ratio of Kis (PHD2 Ki/PHD1 Ki), Kis calculated from TR-FRET IC50s by Cheng Prussoff equation; 1 uM 2-OG
# Text: Time-resolved fluorescence resonance energy transfer (TR-FRET) assay was utilized to determine the enzymatic half maximal inhibitory concentration (IC50) value of PHD inhibitors against the full-length human prolyl-4-hydroxylase domain (PHD) enzymes, PHD1 and PHD2. The TR-FRET assay was developed based on the specific binding of hydroxylated HIF-la peptide with the complex formed by VHL, EloB and EloC (VBC), to generate a fluorescent signal. Terbium (Tb)-Donor (monoclonal antibody anti-6His-Tb-cryptate Gold) and D2-acceptor (streptavidin [SA]-D2) of TR-FRET are linked to the VBC complex and to HIF-1α peptide, respectively. The VBC complex binds specifically to the HIF-1α peptide when it is hydroxylated, allowing energy transfer from TR-FRET donor to acceptor (FIG. 1).
# TR-FRET Reagents. Monoclonal antibody anti-6His-Tb-cryptate Gold (catalog #61HI2TLA) and streptavidin (SA)-D2 (catalog #610SADLA) were purchased from CisBio International (Bedford, MA, USA).
# N-terminus biotinylated HIF-1α C35 synthetic peptide representing amino acids 547 to 581 and including the proline 564 PHD2 hydroxylation site was purchased from California Peptide Research (Salt Lake City, UT, USA).
# VBC Complex. His-tagged recombinant VHL protein, EloB, EloC complex (His-VBC) was supplied by Axxam (Milan, Italy). Recombinant human VHL (National Center for Biotechnology Information [NCBI] accession number NP_00542.1) contained a His tag at the C-terminus of amino acids 55 to 213 and is referred to as VHL-His. VHL-His was co-expressed in E. coli with full-length human EloB (NCBI accession number Q15370.1) and full-length human EloC (NCBI accession number Q15369.1) and purified by affinity chromatography on a nickel-nitrilotriacetic acid (Ni-NTA) column as the His-VBC complex. Purity (˜80%) was assessed by sodium dodecyl sulfate polyacrylamide gel electrophoresis (SDS-PAGE).
# PHD1. Recombinant human PHD1 protein (catalog #81064, Lot #24717001) was purchased from Active Motif (Carlsbad, CA, USA). PHD1 was expressed in a baculovirus expression system as the full-length protein (NCBI accession number NP_542770.2) with an N-terminal FLAG tag (molecular weight 44.9 kDa). Purity (>90%) was assessed by SDS-PAGE.
# PHD2. The full-length human PHD2 enzyme was produced with a baculovirus infected insect cell (BIIC) expression system by Beryllium (Bedford, MA, USA). The PHD2 construct contained amino acids 1 to 426 of PHD2 (UniProt Knowledgebase[UniProtKB]/Swiss-Prot accession number Q9GZT9.1), and a His tag and a Tobacco Etch Virus (TEV) protease cleavage site at the N-terminus. The construct was expressed in Sf9 insect cells, purified by Ni-NTA column and digested with TEV protease to remove the His tag.
# Compounds were preincubated with PHD enzyme in a 10 μL reaction volume in white 384-well Optiplate microplates (catalog #6007290, Perkin Elmer, Waltham, MA, USA). For this, 5 μL compound was serially diluted with dilution buffer (50 mM HEPES [4-(2-hydroxyethyl)-1-piperazineethanesulfonic acid] pH 7.5, 50 mM sodium chloride [NaCl], 0.01% Tween-20, 0.01% purified bovine serum albumin [BSA]) and mixed with 5 μL PHD enzyme mix prepared as a 4× concentrate in the dilution buffer containing PHD enzyme (60 nM PHD1, 20 nM PHD2, 140 nM PHD3), 40 μM ferrous ammonium sulfate (FAS), 4 mM sodium (Na) ascorbate. The plates were incubated for 30 minutes at room temperature without rotation.
# Five microliters of the VBC/anti-6His-Tb-cryptate Gold mix prepared as a 4× concentrate in dilution buffer containing 20 nM His-VBC, 1.32 nM monoclonal antibody anti-6His-Tb-cryptate Gold was then added. This step was followed immediately by the addition of 5 μL of the HIF-1α C35 substrate mix prepared as a 4× concentrate in the dilution buffer containing 120 nM biotin-labeled HIF-1α C35, 132 nM SA-D2, 4 μM 2-oxoglutarate (2-OG) to reach a final reaction volume of 20 μL. […]
row,SMILES,Selectivity of PHD1 over PHD2
1,"CC(C)(CC(=O)O)NC(=O)c1ncc(-c2cccc(Cl)c2)cc1O [compound 1, 3-(5-(3-chlorophenyl)-3-hydroxypicolinamido)-3-methylbutanoic acid]",~14 fold
2,"C[C@@H](CC(=O)O)NC(=O)c1ncc(-c2cccc(Cl)c2)cc1O [compound 2, (S)-3-(5-(3-chlorophenyl)-3-hydroxypicolinamido)butanoic acid]",~16 fold
3,"C[C@H](CC(=O)O)NC(=O)c1ncc(-c2cccc(Cl)c2)cc1O [compound 3, (R)-3-(5-(3-chlorophenyl)-3-hydroxypicolinamido)butanoic acid]",~17 fold
4,"CC(C)(CNC(=O)c1ncc(-c2cccc(Cl)c2)cc1O)C(=O)O [compound 4, 3-(5-(3-chlorophenyl)-3-hydroxypicolinamido)-2,2-dimethylpropanoic acid]",~1187 fold
5,"O=C(O)CCNC(=O)c1ncc(-c2cccc(Cl)c2)cc1O [compound 5, 3-(5-(3-chlorophenyl)-3-hydroxypicolinamido)propanoic acid]",~12 fold
6,"CC(C)(CNC(=O)c1ncc(-c2cnn(-c3ccccc3)c2)cc1O)C(=O)O [compound 6, 3-(3-Hydroxy-5-(1-phenyl-1H-pyrazol-4-yl)picolinamido)-2,2-dimethylpropanoic acid]",~249 fold
7,"CCCn1cc(-c2cnc(C(=O)NCC(C)(C)C(=O)O)c(O)c2)cn1 [compound 7, 3-(3-hydroxy-5-(1-propyl-1H-pyrazol-4-yl)picolinamido)-2,2-dimethylpropanoic acid]",~503 fold
8,"CC(C)(CNC(=O)c1ncc(-c2cccc(Oc3ccccc3)c2)cc1O)C(=O)O [compound 8, 3-(3-hydroxy-5-(3-phenoxyphenyl)picolinamido)-2,2-dimethylpropanoic acid]",~219 fold
9,"CC(C)(CNC(=O)c1ncc(-c2cccc(-c3ccccc3)c2)cc1O)C(=O)O [compound 9, 3-(5-([1,1′-biphenyl]-3-yl)-3-hydroxypicolinamido)-2,2-dimethylpropanoic acid]",~189 fold
10,"CC(C)(CNC(=O)c1ncc(-c2cccc(CN3CCCC3)c2)cc1O)C(=O)O [compound 10, 3-(3-hydroxy-5-(3-(pyrrolidin-1-ylmethyl)phenyl)picolinamido)-2,2-dimethylpropanoic acid]",~95 fold
11,"CC(C)(CNC(=O)c1ncc(-c2cccc(COc3cccc(Cl)c3)c2)cc1O)C(=O)O [compound 11, 3-(5-(3-((3-chlorophenoxy)methyl)phenyl)-3-hydroxypicolinamido)-2,2-dimethylpropanoic acid]",~50 fold
12,"CC(C)(CNC(=O)c1ncc(-c2cccc(OCC3CC3)c2)cc1O)C(=O)O [compound 12, 3-(5-(3-(cyclopropylmethoxy)phenyl)-3-hydroxypicolinamido)-2,2-dimethylpropanoic acid]",~1984 fold
13,"COCCc1ccc(OCc2cccc(-c3cnc(C(=O)NCC(C)(C)C(=O)O)c(O)c3)c2)cc1 [compound 13, 3-(3-hydroxy-5-(3-((4-(2-methoxyethyl)phenoxy)methyl)phenyl)picolinamido)-2,2-dimethylpropanoic acid]",~6 fold
14,"Cc1ncc(-c2cnc(C(=O)NCC(C)(C)C(=O)O)c(O)c2)s1 [compound 14, 3-(3-hydroxy-5-(2-methylthiazol-5-yl)picolinamido)-2,2-dimethylpropanoic acid]",~15 fold
15,"CC(C)(CNC(=O)c1ncc(-c2cccc(-c3cccnc3)c2)cc1O)C(=O)O [compound 15, 3-(3-hydroxy-5-(3-(pyridin-3-yl)phenyl)picolinamido)-2,2-dimethylpropanoic acid]",~125 fold
16,"CC(C)(CNC(=O)c1ncc(-c2cccc(COc3ccc(OC(F)(F)F)cc3)c2)cc1O)C(=O)O [compound 16, 3-(3-hydroxy-5-(3-((4-(trifluoromethoxy)phenoxy)methyl)phenyl)picolinamido)-2,2-dimethylpropanoic acid]",~53 fold
17,"CC(C)(CNC(=O)c1ncc(-c2ccc3ccccc3c2)cc1O)C(=O)O [compound 17, 3-(3-hydroxy-5-(naphthalen-2-yl)picolinamido)-2,2-dimethylpropanoic acid]",~1031 fold
18,"CC(C)(CNC(=O)c1ncc(-c2cccc(COc3cccc4ccccc34)c2)cc1O)C(=O)O [compound 18, 3-(3-hydroxy-5-(3-((naphthalen-1-yloxy)methyl)phenyl)picolinamido)-2,2-dimethylpropanoic acid]",~885 fold
19,"CC(C)(CNC(=O)c1ncc(-c2cnn(CCN3CCOCC3)c2)cc1O)C(=O)O [compound 19, 3-(3-hydroxy-5-(1-(2-morpholinoethyl)-1H-pyrazol-4-yl)picolinamido)-2,2-dimethylpropanoic acid]",~495 fold
20,"CC(C)(CNC(=O)c1ncc(-c2cccc3ccccc23)cc1O)C(=O)O [compound 20, 3-(3-hydroxy-5-(naphthalen-1-yl)picolinamido)-2,2-dimethylpropanoic acid]",~159 fold
21,"CC(C)(CNC(=O)c1ncc(-c2cccc(O)c2)cc1O)C(=O)O [compound 21, 3-(3-hydroxy-5-(3-hydroxyphenyl)picolinamido)-2,2-dimethylpropanoic acid]",~1494 fold
22,"CC(C)(CNC(=O)c1ncc(-c2cccc(OCc3ccc(Cl)cc3)c2)cc1O)C(=O)O [compound 22, 3-(5-(3-((4-chlorobenzyl)oxy)phenyl)-3-hydroxypicolinamido)-2,2-dimethylpropanoic acid]",~261 fold
23,"CC(C)(CNC(=O)c1ncc(-c2ccc3cc(O)ccc3c2)cc1O)C(=O)O [compound 23, 3-(3-hydroxy-5-(6-hydroxynaphthalen-2-yl)picolinamido)-2,2-dimethylpropanoic acid]",~113 fold
24,"CC(C)(CNC(=O)c1ncc(-c2cccc(Oc3ccc(Cl)cc3)c2)cc1O)C(=O)O [compound 24, 3-(5-(3-(4-chlorophenoxy)phenyl)-3-hydroxypicolinamido)-2,2-dimethylpropanoic acid]",~181 fold
25,"CC(C)(CNC(=O)c1ncc(-c2cccc(Nc3ccc(Cl)cc3)c2)cc1O)C(=O)O [compound 25, 3-(5-(3-((4-chlorophenyl)amino)phenyl)-3-hydroxypicolinamido)-2,2-dimethylpropanoic acid]",~213 fold
26,"CC(C)(CNC(=O)c1ncc(-c2ccc3cc(Oc4ccc(Cl)cc4)ccc3c2)cc1O)C(=O)O [compound 26, 3-(5-(6-(4-chlorophenoxy)naphthalen-2-yl)-3-hydroxypicolinamido)-2,2-dimethylpropanoic acid]",~31 fold
27,"CC(C)(CNC(=O)c1ncc(-c2ccc3cc(OCc4ccc(Cl)cc4)ccc3c2)cc1O)C(=O)O [compound 27, 3-(5-(6-((4-chlorobenzyl)oxy)naphthalen-2-yl)-3-hydroxypicolinamido)-2,2-dimethylpropanoic acid]",~24 fold
